Results as given in patent US20090306133A1, “New Acetyl Coenzyme A Carboxylase (ACC) Inhibitors And Uses In Treatments Of Obesity And Diabetes Mellitus - 087” (ASTRAZENECA AB, priority 2007, published 2009).

Key:
[1] = target: Human recombinant Acetyl-CoA Carboxylase 1 (ACC1) (Homo sapiens, UniProt Q13085); experiment: Assay Y: ACC1 inhibition, inorganic phosphate (Malachite Green); type: biochemical; conditions: Assay Y: room temperature, 3 hr, 15 min preincubation
Description: (§1) Preincubation of 6 μL enzyme together with 0.3 μL compound for 15 min was done before the reaction was initiated by the addition of 4 μL substrate. […] After 3 hr the reaction was stopped by addition of 60 μL of water followed by 30 μL Malachite Green solution. The Malachite Green solution was prepared by mixing 16.4 mL ammonium molybdate solution (7.5%), 1.64 mL Tween (11%) with 82 mL Malachite Green/H2SO4-solution (0.7 g Malachite Green to 1000 mL of 10% (v/v) H2SO4). Plates were left for 10 min at room temperature before reading the absorbance at 670 nm. All compounds were tested in triplicate at 10 different concentrations. Control compound (0, 50 and 100% effect) was included on each plate. […] An IC50 value was derived by non-linear regression curve fitting using the following equation: […]))) where A is the non-specific binding, B is the total binding, C is the IC50 and D is the slope. Saturation binding Kd and Bmax were derived using the equation y=((B1 max*x)/(Kd+x)).

[2] = target: Human recombinant Acetyl-CoA Carboxylase 2 (ACC2) (Homo sapiens, UniProt O00763); experiment: Assay Y: ACC2 inhibition, inorganic phosphate (Malachite Green); type: biochemical; conditions: Assay Y: room temperature, 3 hr, 15 min preincubation
Human recombinant Acetyl-CoA Carboxylase 2 (ACC2), sequence (O00763 whole entry): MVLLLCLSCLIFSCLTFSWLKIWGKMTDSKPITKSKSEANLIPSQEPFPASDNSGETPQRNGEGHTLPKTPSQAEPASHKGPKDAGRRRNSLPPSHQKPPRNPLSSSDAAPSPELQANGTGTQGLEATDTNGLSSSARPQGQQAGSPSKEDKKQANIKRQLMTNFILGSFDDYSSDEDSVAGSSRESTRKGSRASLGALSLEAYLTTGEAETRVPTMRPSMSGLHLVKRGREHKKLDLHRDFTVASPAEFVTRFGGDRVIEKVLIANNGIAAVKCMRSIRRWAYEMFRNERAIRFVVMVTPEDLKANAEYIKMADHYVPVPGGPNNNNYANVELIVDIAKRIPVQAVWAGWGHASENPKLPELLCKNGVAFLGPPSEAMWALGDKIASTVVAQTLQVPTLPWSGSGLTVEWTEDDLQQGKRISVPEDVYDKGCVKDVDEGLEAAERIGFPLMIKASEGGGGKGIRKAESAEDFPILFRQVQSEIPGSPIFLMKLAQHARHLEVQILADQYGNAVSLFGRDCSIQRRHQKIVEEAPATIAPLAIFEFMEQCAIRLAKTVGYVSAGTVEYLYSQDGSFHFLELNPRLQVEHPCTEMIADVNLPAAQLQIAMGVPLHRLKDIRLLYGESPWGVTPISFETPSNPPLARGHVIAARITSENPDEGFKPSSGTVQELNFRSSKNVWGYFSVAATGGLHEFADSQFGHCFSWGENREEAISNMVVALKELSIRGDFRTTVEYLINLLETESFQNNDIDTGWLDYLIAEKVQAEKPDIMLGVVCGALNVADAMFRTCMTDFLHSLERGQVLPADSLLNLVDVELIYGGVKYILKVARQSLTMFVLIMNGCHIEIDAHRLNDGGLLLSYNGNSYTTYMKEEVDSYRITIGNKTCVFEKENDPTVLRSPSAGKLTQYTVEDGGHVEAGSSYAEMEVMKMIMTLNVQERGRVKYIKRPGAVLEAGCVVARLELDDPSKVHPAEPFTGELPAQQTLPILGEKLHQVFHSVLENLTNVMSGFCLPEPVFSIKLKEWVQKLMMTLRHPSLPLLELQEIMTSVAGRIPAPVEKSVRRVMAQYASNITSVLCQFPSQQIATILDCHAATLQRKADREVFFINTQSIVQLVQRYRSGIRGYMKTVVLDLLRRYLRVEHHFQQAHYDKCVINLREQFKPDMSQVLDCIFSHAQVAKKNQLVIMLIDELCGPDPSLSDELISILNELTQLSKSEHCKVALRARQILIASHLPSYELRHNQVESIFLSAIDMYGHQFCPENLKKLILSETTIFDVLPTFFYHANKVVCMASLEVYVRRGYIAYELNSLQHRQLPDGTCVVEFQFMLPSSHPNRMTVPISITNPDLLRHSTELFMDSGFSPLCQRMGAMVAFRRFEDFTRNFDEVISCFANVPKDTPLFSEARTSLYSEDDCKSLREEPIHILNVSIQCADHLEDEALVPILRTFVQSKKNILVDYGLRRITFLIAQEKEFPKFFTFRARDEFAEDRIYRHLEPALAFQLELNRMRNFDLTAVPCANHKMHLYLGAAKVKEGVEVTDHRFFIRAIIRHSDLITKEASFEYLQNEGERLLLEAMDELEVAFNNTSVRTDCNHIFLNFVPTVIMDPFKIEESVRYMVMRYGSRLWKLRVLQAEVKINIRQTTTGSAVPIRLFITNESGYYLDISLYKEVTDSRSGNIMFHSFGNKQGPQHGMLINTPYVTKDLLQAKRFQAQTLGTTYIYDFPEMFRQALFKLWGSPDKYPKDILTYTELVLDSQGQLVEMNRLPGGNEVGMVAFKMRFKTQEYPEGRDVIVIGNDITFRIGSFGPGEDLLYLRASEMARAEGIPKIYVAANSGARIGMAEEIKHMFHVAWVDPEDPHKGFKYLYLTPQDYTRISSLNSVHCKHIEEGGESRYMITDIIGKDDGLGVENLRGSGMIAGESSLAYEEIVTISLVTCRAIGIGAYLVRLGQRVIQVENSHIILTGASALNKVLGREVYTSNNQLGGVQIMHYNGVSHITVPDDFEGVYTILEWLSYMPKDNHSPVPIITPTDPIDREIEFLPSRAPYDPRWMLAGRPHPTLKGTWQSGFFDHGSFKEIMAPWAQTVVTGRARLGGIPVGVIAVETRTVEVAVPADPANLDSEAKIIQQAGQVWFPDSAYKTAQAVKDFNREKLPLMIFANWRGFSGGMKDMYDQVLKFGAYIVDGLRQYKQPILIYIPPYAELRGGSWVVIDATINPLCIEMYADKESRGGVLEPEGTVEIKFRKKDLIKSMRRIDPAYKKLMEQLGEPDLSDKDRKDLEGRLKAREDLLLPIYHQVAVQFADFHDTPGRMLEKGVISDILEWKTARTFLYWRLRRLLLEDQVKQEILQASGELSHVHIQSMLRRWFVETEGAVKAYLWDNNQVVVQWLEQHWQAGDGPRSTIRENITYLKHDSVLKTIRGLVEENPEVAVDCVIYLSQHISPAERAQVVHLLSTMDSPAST
Description: as §1

Row | SMILES | IC50 [1] [µM] | IC50 [2] [µM]
1 | CC(C)(C)OC(=O)NC[C@H]1CC[C@H](CNC(=O)c2cncc(-c3ccccc3)c2)CC1 [Example 44, tert-Butyl {[trans-4-({[(5-phenylpyridin-3-yl)carbonyl]amino}methyl)cyclohexyl]-methyl}carbamate] | 13 | 9.71
2 | CC(C)(C)OC(=O)NC[C@H]1CC[C@H](CNC(=O)c2ccnc(-c3cc4ccccc4s3)c2)CC1 [Example 45, tert-Butyl {[trans-4-({[2-(1-benzothiophen-2-yl)isonicotinoyl]amino}methyl)cyclo-hexyl]methyl}carbamate] | > 20 | 4.35
3 | CCOc1ccc(-c2cc(C(=O)NC[C@H]3CC[C@H](CNC(=O)OC(C)(C)C)CC3)ccn2)cn1 [Example 46, tert-Butyl {[trans-4-({[(6′-ethoxy-2,3′-bipyridin-4-yl)carbonyl]amino}methyl)cyclohexyl]methyl}carbamate] | > 20 | 9.53
4 | COc1ccc(-c2cc(C(=O)NC[C@H]3CC[C@H](CNC(=O)OC(C)(C)C)CC3)ccn2)c(OC)c1 [Example 47, tert-Butyl {[trans-4-({[2-(2,4-dimethoxyphenyl)isonicotinoyl]amino}methyl)cyclohexyl]methyl}carbamate] | 14.1 | 9.85
5 | COc1ccc(-c2cc(C(=O)NC[C@H]3CC[C@H](CNC(=O)OC(C)(C)C)CC3)ccn2)c(OC)n1 [Example 48, tert-Butyl {[trans-4-({[(2′,6′-dimethoxy-2,3′-bipyridin-4-yl)carbonyl]amino}methyl)-cyclohexyl]methyl}carbamate] | > 20 | 9.67
6 | COc1ccc(-c2cc(C(=O)NC[C@H]3CC[C@H](CNC(=O)OC(C)(C)C)CC3)ccn2)cn1 [Example 49, tert-Butyl {[trans-4-({[(6′-methoxy-2,3′-bipyridin-4-yl)carbonyl]amino}methyl)cyclohexyl]methyl}carbamate] | 7.6 | 9.87
7 | CC(C)(C)OC(=O)NC[C@H]1CC[C@H](CNC(=O)c2ccnc(-c3ccc(C(N)=O)cc3)c2)CC1 [Example 50, tert-Butyl {[trans-4-({[2-(4-carbamoylphenyl)isonicotinoyl]amino}methyl)cyclohexyl]-methyl}carbamate] | 5.3 | 6.82
8 | CC(C)(C)OC(=O)NC[C@H]1CC[C@H](CNC(=O)c2ccnc(-c3cccc(Cl)c3)c2)CC1 [Example 51, tert-Butyl {[trans-4-({[2-(3-chlorophenyl)isonicotinoyl]amino}methyl)cyclohexyl]-methyl}carbamate] | > 20 | 5.67
9 | CC(C)(C)OC(=O)NC[C@H]1CC[C@H](CNC(=O)c2ccnc(-c3ccc(CN)cc3)c2)CC1 [Example 52, tert-Butyl ({trans-4-[({2-[4-(aminomethyl)phenyl]isonicotinoyl}amino)methyl]cyclo-hexyl}methyl)carbamate] | 8.23 | 7.66
10 | CC(C)(C)OC(=O)NC[C@H]1CC[C@H](CNC(=O)c2ccnc(-c3ccc(F)c(F)c3)c2)CC1 [Example 53, tert-Butyl {[trans-4-({[2-(3,4-difluorophenyl)isonicotinoyl]amino}methyl)cyclohexyl]-methyl}carbamate] | > 20 | 9.08
11 | CCOC(=O)NC[C@H]1CC[C@H](CNS(=O)(=O)c2ccc3ccccc3c2)CC1 [Example 54, Ethyl [(trans-4-{[(2-naphthylsulfonyl)amino]methyl}cyclohexyl)methyl]carbamate] | > 20 | 3.99
12 | CC(C)(C)COC(=O)NC[C@H]1CC[C@H](CNC(=O)c2cc(-c3ccncc3)nc3ccccc23)CC1 [Example 55, 2,2-Dimethylpropyl {[trans-4-({[(2-pyridin-4-ylquinolin-4-yl)carbonyl]amino}methyl)-cyclohexyl]methyl}carbamate] | 1.3 | 0.28
13 | O=C(NC[C@H]1CC[C@H](CNC(=O)c2cc(-c3ccncc3)nc3ccccc23)CC1)OC1CCCC1 [Example 56, Cyclopentyl {[trans-4-({[(2-pyridin-4-ylquinolin-4-yl)carbonyl]amino}methyl)cyclo-hexyl]methyl}carbamate] | 1.21 | 0.4
14 | CC(C)OC(=O)NC[C@H]1CC[C@H](CNC(=O)c2cc(-c3ccncc3)nc3ccccc23)CC1 [Example 57, Isopropyl {[trans-4-({[(2-pyridin-4-ylquinolin-4-yl)carbonyl]amino}methyl)cyclo-hexyl]methyl}carbamate] | 1.91 | 0.8
15 | CCCOC(=O)NC[C@H]1CC[C@H](CNC(=O)c2cc(-c3ccncc3)nc3ccccc23)CC1 [Example 58, Propyl {[trans-4-({[(2-pyridin-4-ylquinolin-4-yl)carbonyl]amino}methyl)cyclohexyl]-methyl}carbamate] | 2.1 | 0.81
16 | COCCOC(=O)NC[C@H]1CC[C@H](CNC(=O)c2cc(-c3ccncc3)nc3ccccc23)CC1 [Example 59, 2-Methoxyethyl {[trans-4-({[(2-pyridin-4-ylquinolin-4-yl)carbonyl]amino}-methyl)cyclohexyl]methyl}carbamate] | > 20 | 4.67
17 | CCOC(=O)NC[C@H]1CC[C@H](CNC(=O)c2cc(-c3ccncc3)nc3ccccc23)CC1 [Example 60, Ethyl {[trans-4-({[(2-pyridin-4-ylquinolin-4-yl)carbonyl]amino}methyl)cyclo-hexyl]methyl}carbamate] | 3.17 | 1.82
18 | CCOC(=O)NC[C@H]1CC[C@H](CNC(=O)c2cc(-c3ccc(C(N)=O)cc3)nc3ccccc23)CC1 [Example 61, Ethyl ({trans-4-[({[2-(4-carbamoylphenyl)quinolin-4-yl]carbonyl}amino)methyl]-cyclohexyl}methyl)carbamate] | 1 | 0.55
19 | CCOC(=O)NC[C@H]1CC[C@H](CNC(=O)c2cc(-c3ccccc3)nc3ccccc23)CC1 [Example 62, Ethyl {[trans-4-({[(2-phenylquinolin-4-yl)carbonyl]amino}methyl)cyclohexyl]methyl}-carbamate] | 3.07 | 2.77
20 | CC(C)(C)OC(=O)NC[C@H]1CC[C@H](CNS(=O)(=O)c2cccc(-c3ccccc3)c2)CC1 [Example 63, tert-Butyl [(trans-4-{[(biphenyl-3-ylsulfonyl)amino]methyl}cyclohexyl)methyl]-carbamate] | 4.58 | 2.83
21 | CC(C)(C)OC(=O)NC[C@H]1CC[C@H](CNS(=O)(=O)c2ccc(Br)c(Br)c2)CC1 [Example 64, tert-Butyl {[trans-4-({[(3,4-dibromophenyl)sulfonyl]amino}methyl)cyclohexyl]-methyl}carbamate] | > 20 | 3.72
22 | CC(C)(C)OC(=O)NC[C@H]1CC[C@H](CNS(=O)(=O)c2ccc(Cl)c(Cl)c2)CC1 [Example 65, tert-Butyl {[trans-4-({[(3,4-dichlorophenyl)sulfonyl]amino}methyl)cyclohexyl]methyl}-carbamate] | > 20 | 3.88
23 | CC(C)(C)OC(=O)NC[C@H]1CC[C@H](CNS(=O)(=O)c2cccc3cccnc23)CC1 [Example 66, tert-Butyl [(trans-4-{[(quinolin-8-ylsulfonyl)amino]methyl}cyclohexyl)methyl]-carbamate] | 6.79 | 1.39
24 | CC(C)(C)OC(=O)NC[C@H]1CC[C@H](CNS(=O)(=O)c2ccc(-c3ccccc3)cc2)CC1 [Example 67, tert-Butyl [(trans-4-{[(biphenyl-4-ylsulfonyl)amino]methyl}cyclohexyl)methyl]-carbamate] | > 20 | 3.29
25 | CC(C)c1ccc(S(=O)(=O)NC[C@H]2CC[C@H](CNC(=O)OC(C)(C)C)CC2)cc1 [Example 68, tert-Butyl {[trans-4-({[(4-isopropylphenyl)sulfonyl]amino}methyl)cyclohexyl]methyl}-carbamate] | > 20 | 2.62
26 | Cc1nc(-c2ccc(S(=O)(=O)NC[C@H]3CC[C@H](CNC(=O)OC(C)(C)C)CC3)s2)cs1 [Example 70, tert-Butyl ({trans-4-[({[5-(2-methyl-1,3-thiazol-4-yl)-2-thienyl]sulfonyl}amino)-methyl]cyclohexyl}methyl)carbamate] | > 20 | 2.85
27 | CC(=O)Nc1cccc2c(S(=O)(=O)NC[C@H]3CC[C@H](CNC(=O)OC(C)(C)C)CC3)cccc12 [Example 71, tert-Butyl {[trans-4-({[(5-acetamido-1-naphthyl)sulfonyl]amino}methyl)cyclohexyl]-methyl}carbamate] | 16.9 | 2.45
28 | CC(C)(C)OC(=O)NC[C@H]1CC[C@H](CNS(=O)(=O)c2ccc(-c3ccno3)s2)CC1 [Example 72, tert-Butyl {[trans-4-({[(5-isoxazol-5-yl-2-thienyl)sulfonyl]amino}methyl)cyclo-hexyl]methyl}carbamate] | > 20 | 2.48
29 | CC(=O)Nc1ccc(S(=O)(=O)NC[C@H]2CC[C@H](CNC(=O)OC(C)(C)C)CC2)cc1 [Example 73, tert-Butyl {[trans-4-({[(4-acetamidophenyl)sulfonyl]amino}methyl)cyclohexyl]-methyl}carbamate] | > 20 | 5.03
30 | CC(C)(C)OC(=O)NC[C@H]1CC[C@H](CNS(=O)(=O)c2ccsc2)CC1 [Example 74, tert-Butyl [(trans-4-{[(3-thienylsulfonyl)amino]methyl}cyclohexyl)methyl]-carbamate] | > 20 | 9.49
